{
  "source": "patent US10045529B2",
  "about": "“Quat cleaner with glycerin ether ethoxylates” (Ecolab USA Inc., priority 2012, dated 2018)",
  "key": {"[1]": {"assay": "Cloud point of solfactants in various solutions", "format": "physicochemical", "conditions": "1% in 10% NaCl", "from_the_text": "Various 2-Ethyl Hexanol Glycerin Ether Ethoxylate solfactants were produced using ethoxylation by a KOH Catalyst.\nFurther the cloud point data for the solfactants in various solutions is shown. The cloud point temperatures show the temperature above which a surfactant-rich phase separates from an aqueous solution. There is a clear relationship between the cloud point and the average EO content of the glycerin ether ethoxylate; as the ethylene oxide content of the solfactant increases, the cloud point and water solubility increase. As the carbon number on the molecule increases, a greater number of moles of ethylene oxide are required to be added to the molecule to retain the same cloud point."}, "[2]": {"assay": "Glewwe foam meter foam height test", "format": "physicochemical", "conditions": "50 ppm", "from_the_text": "Foam testing was completed for the ethoxylated glycerine ether solfactants in comparison to commercially-available ethoxylated alcohols using a Glewwe foam meter. A Glewwe foam meter provides a dynamic foam test rather than a static test, which is considered more appropriate for simulation of industrial conditions. The equipment and general procedure for the Glewwe form test is described in U.S. Pat. Nos. 3,899,387 and 5,447,648, which are herein incorporated by reference in its entirety. The foam meter itself consists of a thermostated reservoir and a pump to recirculate the aqueous medium with foaming tendencies. The foam developed by the action of the aqueous stream impinging on the surface in the reservoir causes foam formation.\nThe foam heights of the tested compositions were determined using the following method. First 3000 mL of city water (e.g. 17 gpg) was filled into the Glewwe cylinder. The pump was turned on, pressure adjusted to 6 psi, and heated water to 140° F. The commercially available surfactant (or the solfactant according to the invention) was added at 50 ppm in the cylinder and the timer was started. Foam height was recorded at 1 minute and 5 minutes. After 5 minutes the pump was stopped and foam stability characteristics were observed. The cylinder was then drained, rinsed, and the methods repeated."}, "[3]": {"assay": "Gel formation with water", "format": "physicochemical", "from_the_text": "The low foam profiles and low viscosity of the glycerin ether ethoxylate solfactants as shown in Examples 5 and 6 were further compared to gel curves of conventional ethoxylated alcohols (e.g. Tomadol surfactants). […]"}, "[4]": {"assay": "Tergotometer detergency test on EMPA soiled swatches", "procedure": "Laundry detergent compositions using 500 ppm sodium hydroxide (e.g. caustic) and the indicated conventional Surfonic® surfactant or the glycerin ether ethoxylate solfactant according to the invention were evaluated. A tergotometer test procedure was employed to measure detergency of test compositions according to the invention. A tergotometer along with 500 mL pots and water bath were employed. First, unwashed swatches from the lot numbers to be used in the test are read on the Konica Minolta Spectrophotometer model CM-3600d to establish the average initial (before washing) L value. A sampling of each swatch type is used. The desired wash temperature is programmed into the Tergotometer and its water bath is allowed to heat up to that temperature. 500 mL of the desired water type is added to each Tergotometer pot and allowed to equilibrate to the desired temperature.\nThe following standard, commercially available (EMPA) soiled swatches were used for baseline testing in the Examples, as shown in Table 9.\nThe test detergent compositions are weighed out and added to the Tergotometer pots. Various detergent compositions as shown in Tables 10-11 were employed under varying water conditions, including 5 grain water (Table 10) and 17 grain water (Table 11).\nThe detergent systems were agitated for 10 minutes to mix and dissolve in the water sources. The agitation/mixing speed RPM was adjusted to 200. The temperature of the detergent compositions dissolved in water was 60° C., unless indicated otherwise in the Figures/Examples set forth below. The swatches are added quickly to their respective pots in a left to right sequence in order to minimize differences in exposure time to the detergent systems. A wash run is completed for at least 10 minutes. At the end of the run, the swatches are removed from the pots quickly in a left to right sequence using a forceps and are transferred into 500 mL-1 liter of cool water to rinse. After rinsing with cold tap water, excess water from the swatches was removed by squeezing the swatches. The process was repeated with rinsing and squeezing excess water at least 2 more times. The swatches were air dried on a visa napkin or paper towel on the lab bench.\nThe swatches were then read on the HunterLab Color Quest and calculate % soil removal (i.e. whiteness) from the difference between the initial (before washing) L value and the final L value (after washing). Percent Soil Removal=(L after−L initial)/(96−L initial)*100 is represented as L*."}, "[5]": {"assay": "Differential Scanning calorimetry (DSC) freeze or melt point", "format": "physicochemical", "procedure": "Differential Scanning calorimetry (DSC) was run on the various 2-Ethyl Hexanol Glycerin Ether Ethoxylate solfactants set forth in Table 1. The DSC evaluated additional properties of the exemplary set of novel solfactants, namely the freezing point of the molecules. The DSC utilized can be measured down to minus 80° C. for determining a freeze or melt points of a liquid. […] This is distinct form conventional alcohol ethoxylates (having equivalent degrees of ethoxylation) which have very high melt points. For example, many conventional alcohol ethoxylate surfactants have melt points at room temperature or higher, resulting in the compositions being solids at room temperature. In addition, as one skilled in the art ascertains, the more ethyl oxide you add to a standard alcohol ethoxylate, the higher the melt point. This is distinct from the solfactants according to the invention, including the 2-Ethyl Hexanol Glycerin Ether Ethoxylate solfactants set forth in Table 1. For example, Tomadol 24-9 is a solid at room temperature, whereas the equivalent 2EHGE 9 mole is a liquid at room temperature."}},
  "data": [
    {"substance": "2-Ethyl Hexanol Glycerin Ether Ethoxylate (9 moles) [2EHGE (9 EO)]", "values": [
      {"measurement": "Cloud Point Data 1% in 10% NaCl", "setting": "[1]", "value": 95, "unit": "°C"},
      {"measurement": "OBSERVATIONS (foam stability after pump stopped)", "setting": "[2]; after 5 minutes pump stopped", "value": "Unstable - Breaks"},
      {"measurement": "Foam Height (in) @ 1 MIN", "setting": "[2]; city water 17 gpg, 140° F., 6 psi, 1 minute", "value": 4.5, "unit": "in"},
      {"measurement": "Foam Height (in) @ 5 MIN", "setting": "[2]; city water 17 gpg, 140° F., 6 psi, 5 minutes", "value": 4.5, "unit": "in"},
      {"measurement": "Gel Formation", "setting": "[3]; 20%/80%", "value": "None"},
      {"measurement": "Gel Formation", "setting": "[3]; 30%/70%", "value": "None"},
      {"measurement": "Gel Formation", "setting": "[3]; 40%/60%", "value": "None"},
      {"measurement": "Gel Formation", "setting": "[3]; 50%/50%", "value": "None"},
      {"measurement": "Gel Formation", "setting": "[3]; 60%/40%", "value": "None"},
      {"measurement": "Gel Formation", "setting": "[3]; 70%/30%", "value": "None"},
      {"measurement": "Gel Formation", "setting": "[3]; 80%/20%", "value": "None"},
      {"measurement": "Gel Formation", "setting": "[3]; 90%/10%", "value": "None"},
      {"measurement": "Gel Formation", "setting": "[3]; Glycerin Ether Ethoxylate %/Water % 10%/90%", "value": "None"},
      {"measurement": "% removal EMPA 116", "setting": "[4]; 5 gpg water, 50 ppm, 500 ppm sodium hydroxide, 60° C., EMPA 116 (Blood, milk and ink, Cotton)", "value": 33, "unit": "%"},
      {"measurement": "% removal EMPA 101", "setting": "[4]; 5 gpg, 50 ppm, EMPA 101 (olive oil/carbon black, Cotton)", "value": 32, "unit": "%"},
      {"measurement": "% removal EMPA 104", "setting": "[4]; 5 gpg, 50 ppm, EMPA 104 (olive oil/carbon black, Cotton blend)", "value": 38, "unit": "%"},
      {"measurement": "% removal EMPA 106", "setting": "[4]; 5 gpg, 50 ppm, EMPA 106 (mineral oil, Cotton)", "value": 55.18, "unit": "%"},
      {"measurement": "% removal EMPA 111", "setting": "[4]; 5 gpg, 50 ppm, EMPA 111 (Pig blood, Cotton)", "value": 48, "unit": "%"},
      {"measurement": "% removal EMPA 114", "setting": "[4]; 5 gpg, 50 ppm, EMPA 114 (Red wine, Cotton)", "value": 2, "unit": "%"},
      {"measurement": "% removal EMPA 101", "setting": "[4]; 5 gpg, 100 ppm, EMPA 101", "value": 29, "unit": "%"},
      {"measurement": "% removal EMPA 104", "setting": "[4]; 5 gpg, 100 ppm, EMPA 104", "value": 24, "unit": "%"},
      {"measurement": "% removal EMPA 106", "setting": "[4]; 5 gpg, 100 ppm, EMPA 106", "value": 50.14, "unit": "%"},
      {"measurement": "% removal EMPA 111", "setting": "[4]; 5 gpg, 100 ppm, EMPA 111", "value": 54, "unit": "%"},
      {"measurement": "% removal EMPA 114", "setting": "[4]; 5 gpg, 100 ppm, EMPA 114", "value": 0, "unit": "%"},
      {"measurement": "% removal EMPA 116", "setting": "[4]; 5 gpg, 100 ppm, EMPA 116", "value": 25, "unit": "%"},
      {"measurement": "% removal EMPA 101", "setting": "[4]; 17 gpg, 50 ppm, EMPA 101", "value": 21, "unit": "%"},
      {"measurement": "% removal EMPA 104", "setting": "[4]; 17 gpg, 50 ppm, EMPA 104", "value": 19, "unit": "%"},
      {"measurement": "% removal EMPA 106", "setting": "[4]; 17 gpg, 50 ppm, EMPA 106", "value": 9, "unit": "%"},
      {"measurement": "% removal EMPA 111", "setting": "[4]; 17 gpg, 50 ppm, EMPA 111", "value": 35, "unit": "%"},
      {"measurement": "% removal EMPA 114", "setting": "[4]; 17 gpg, 50 ppm, EMPA 114", "value": 1, "unit": "%"},
      {"measurement": "% removal EMPA 116", "setting": "[4]; 17 gpg, 50 ppm, EMPA 116", "value": 21, "unit": "%"},
      {"measurement": "% removal EMPA 101", "setting": "[4]; 17 gpg, 100 ppm, EMPA 101", "value": 20, "unit": "%"},
      {"measurement": "% removal EMPA 104", "setting": "[4]; 17 gpg, 100 ppm, EMPA 104", "value": 16, "unit": "%"},
      {"measurement": "% removal EMPA 106", "setting": "[4]; 17 gpg, 100 ppm, EMPA 106", "value": 10, "unit": "%"},
      {"measurement": "% removal EMPA 111", "setting": "[4]; 17 gpg, 100 ppm, EMPA 111", "value": 32, "unit": "%"},
      {"measurement": "% removal EMPA 114", "setting": "[4]; 17 gpg, 100 ppm, EMPA 114", "value": 1, "unit": "%"},
      {"measurement": "% removal EMPA 116", "setting": "[4]; 17 gpg, 100 ppm, EMPA 116", "value": 20, "unit": "%"},
      {"measurement": "Physical state at room temperature", "setting": "[5]", "value": "liquid"}
    ]}
  ]
}
